{"source": "patent US20260272891A1", "about": "“TREATMENT OF AUTOIMMUNE DISEASES AND CANCER WITH PROTEASE INHIBITORS” (Lundquist Institute for Biomedical Innovation at …, priority 2023, published 2026)", "origin": "cited, not measured here", "tested_on": "all variants of concern, including Omicron and its variants", "conditions": "cited from earlier work"}
{"smiles": "CC(C)(C)[C@H](NC(=O)C(F)(F)F)C(=O)N1C[C@H]2[C@@H]([C@H]1C(=O)N[C@H](C#N)C[C@@H]1CCNC1=O)C2(C)C", "note": "[NMV, nirmatrelvir]", "values": [{"measurement": "antiviral activity", "value": "antiviral activity against all variants of concern"}]}
